The source of these data is patent US20250368649A1, “TETRAHYDROPYRIDOPYRIMIDINE PAN-KRAS INHIBITORS” (Mirati Therapeutics, Inc., priority 2022, published 2025).

The term IC50 denotes the concentration that inhibits the measured activity by half.

The subject of one test is MKN1 cells. In words: Inhibition of KRas-mediated phosphorylation of ERK (Cisbio HTRF pERK), MKN1 cells. Particulars: Homo sapiens. The format is cell-based. The procedure, abridged:
(§1)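 Growth medium is RPMI with 10% FBS, and each well receives 6,000 cells on the first day of the protocol.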
(TR-FRET usually uses a lanthanide donor and a delayed reading to cut background.)

The next test deals with PSN1 cells. In words: Inhibition of KRas-mediated phosphorylation of ERK (Cisbio HTRF pERK), PSN1 cells. Format: cell-based. The settings on record: Homo sapiens, PSN1, 3 h. The procedure, abridged:
as §1

A further test has as its system ASPC1 cells. Nature of the test: Inhibition of KRas-mediated phosphorylation of ERK (Cisbio HTRF pERK), ASPC1 cells. The format is cell-based. The settings on record: Homo sapiens, ASPC1, 3 h, AsPC-1 cells, 3 hr compound incubation.
Another test concerns H727 cells. In words: Inhibition of KRas-mediated phosphorylation of ERK (Cisbio HTRF pERK), H727 cells. Particulars: Homo sapiens, NCI-H727, 3 h, 3 hr compound incubation. Format: cell-based.
The next test relates to A549 cells. In words: Inhibition of KRas-mediated phosphorylation of ERK (Cisbio HTRF pERK), A549 cells. The format is cell-based. The settings on record: Homo sapiens, A549, 3 h, 3 hr compound incubation.
For the next test, the system named is H460 cells. In words: Inhibition of KRas-mediated phosphorylation of ERK (Cisbio HTRF pERK), H460 cells. The format is cell-based. Particulars: Homo sapiens, NCI-H460, 3 h, 3 hr compound incubation.
A further test relates to HCT116 cells. In words: Inhibition of KRas-mediated phosphorylation of ERK (Cisbio HTRF pERK), HCT116 cells. Format: cell-based. The settings on record: Homo sapiens, HCT-116, 3 h, 3 hr compound incubation.
In the next test the test system is H358 cells. In words: Inhibition of KRas-mediated phosphorylation of ERK (Cisbio HTRF pERK), H358 cells. Format: cell-based. The settings on record: Homo sapiens, NCI-H358, 3 h, 3 hr compound incubation.
The target in another test is KRas G12D (Homo sapiens, UniProt P01116, G12D). In words: biochemical. Particulars: Binding to KRas (IC50 nM) G12D, TR-FRET displacement, KRas G12D.
In the next test the target is KRas G12R (Homo sapiens, UniProt P01116, G12R). Nature of the test: biochemical. Particulars: Binding to KRas (IC50 nM) G12R, TR-FRET displacement, KRas G12R.
A further test concerns the target KRas G12V (Homo sapiens, UniProt P01116, G12V). Nature of the test: biochemical. The settings on record: Binding to KRas (IC50 nM) G12V, TR-FRET displacement, KRas G12V.
Setting [1] is: MKN-1, 3 hour compound incubation, Cisbio pERK HTRF.
The mark [2] stands for this setting: 3 hour compound incubation, Cisbio pERK HTRF.

KRas G12V, sequence (P01116 1-169 isoform P01116-2 G12V): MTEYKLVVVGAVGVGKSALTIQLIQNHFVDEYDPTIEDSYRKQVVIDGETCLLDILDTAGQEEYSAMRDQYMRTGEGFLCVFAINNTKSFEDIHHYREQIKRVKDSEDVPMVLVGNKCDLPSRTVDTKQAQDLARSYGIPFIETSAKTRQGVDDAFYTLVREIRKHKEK
KRas G12D, sequence (P01116 1-169 isoform P01116-2 G12D): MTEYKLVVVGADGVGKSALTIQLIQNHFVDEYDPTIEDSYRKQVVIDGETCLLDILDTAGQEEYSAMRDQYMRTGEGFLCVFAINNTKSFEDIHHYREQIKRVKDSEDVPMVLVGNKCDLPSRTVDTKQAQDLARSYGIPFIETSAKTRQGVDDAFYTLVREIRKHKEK
KRas G12R, sequence (P01116 1-169 isoform P01116-2 G12R): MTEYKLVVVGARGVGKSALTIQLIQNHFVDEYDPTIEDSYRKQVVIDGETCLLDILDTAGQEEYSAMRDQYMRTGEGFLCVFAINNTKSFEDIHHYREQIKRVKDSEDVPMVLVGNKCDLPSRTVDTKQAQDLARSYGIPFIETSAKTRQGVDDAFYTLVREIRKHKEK

Regarding `CCc1c(F)ccc2cc(O)cc(N3CCc4c(nc(OC[C@@]56CCCN5C[C@H](F)C6)nc4N4CCCCn5nc(C(=O)N(C)C6CC6)cc5C4)C3)c12` [Example 592, N-cyclopropyl-5-(7-(8-ethyl-7-fluoro-3-hydroxynaphthalen-1-yl)-2-(((2R,7aS)-2-fluorotetrahydro-1H-pyrrolizin-7a(5H)-yl)methoxy)-5,6,7,8-tetrahydropyrido[3,4-d]pyrimidin-4-yl)-N-methyl-4,5,6,7,8,9-hexahydropyrazolo[1,5-a][1,4] diazocine-2-carboxamide], the IC50 is 11 nM in the test with MKN1 cells (setting [1]); 3450 nM in the test on PSN1 cells (setting [2]); 14 nM with ASPC1 cells (Cisbio pERK HTRF); 8 nM in the test with H727 cells (Cisbio pERK HTRF); 29 nM in the test on A549 cells (Cisbio pERK HTRF); 50 nM in the test on H460 cells (Cisbio pERK HTRF). The concentration for half-maximal inhibition (IC50) with HCT116 cells (Cisbio pERK HTRF) was 148 nM; in the test on H358 cells (Cisbio pERK HTRF) it was 4 nM; on KRas G12D, below 2 nM; on KRas G12R, below 2 nM; at KRas G12V it was below 2 nM.

Consider `CCc1c(F)ccc2cc(O)cc(N3CCc4c(nc(OC[C@]56CCCN5[C@H](CNS(=O)(=O)N(C)C)CC6)nc4N4CCCn5nc(C(=O)N(C)C)cc5C4)C3)c12` [Example 593, 5-(2-(((3S,7aR)-3-(((N,N-dimethylsulfamoyl)amino)methyl)tetrahydro-1H-pyrrolizin-7a(5H)-yl)methoxy)-7-(8-ethyl-7-fluoro-3-hydroxynaphthalen-1-yl)-5,6,7,8-tetrahydropyrido[3,4-d]pyrimidin-4-yl)-N,N-dimethyl-5,6,7,8-tetrahydro-4H-pyrazolo[1,5-a][1,4]diazepine-2-carboxamide], for which the half-inhibitory concentration (IC50) worked out at 49.1 nM in the test on MKN1 cells (setting [1]); 9360 nM with PSN1 cells (setting [2]); 19 nM in the test with ASPC1 cells (Cisbio pERK HTRF); 50 nM with H727 cells (Cisbio pERK HTRF); 114 nM with A549 cells (Cisbio pERK HTRF); 158 nM in the test with H460 cells (Cisbio pERK HTRF). For the same molecule, the half-inhibitory concentration (IC50) in the test with HCT116 cells (Cisbio pERK HTRF) was 515 nM; in the test on H358 cells (Cisbio pERK HTRF), 16 nM; on KRas G12D it was below 2 nM; on KRas G12R it was below 2 nM; at KRas G12V, below 2 nM.

In the case of `CCc1c(F)ccc2cc(O)cc(N3CCc4c(nc(OCC5(CN(C)C)CC5)nc4N4CC(C)CC(CO)C4)C3)c12` (stereo not shown) [Example 596, 4-(2-((1-((dimethylamino)methyl)cyclopropyl)methoxy)-4-(3-(hydroxymethyl)-5-methylpiperidin-1-yl)-5,8-dihydropyrido[3,4-d]pyrimidin-7(6H)-yl)-5-ethyl-6-fluoronaphthalen-2-ol], the IC50 in the test on MKN1 cells (setting [1]) was above 10000 nM; in the test on PSN1 cells (setting [2]), above 10000 nM; with ASPC1 cells (Cisbio pERK HTRF), 1920 nM; in the test with H727 cells (Cisbio pERK HTRF), 2490 nM; in the test with A549 cells (Cisbio pERK HTRF) it was 2670 nM; with H460 cells (Cisbio pERK HTRF), 1280 nM. Moreover, the IC50 in the test on HCT116 cells (Cisbio pERK HTRF) amounted to 3340 nM; in the test with H358 cells (Cisbio pERK HTRF), 595 nM; at KRas G12D, 11 nM; on KRas G12R, 9 nM; at KRas G12V it was 7 nM.

For `CCc1c(F)ccc2cc(O)cc(N3CCc4c(nc(OCC5(CN(C)C)CC5)nc4N4CCCC(c5cn(C)nn5)C4)C3)c12` (stereo not shown) [Example 598, 4-(2-((1-((dimethylamino)methyl)cyclopropyl)methoxy)-4-(3-(1-methyl-1H-1,2,3-triazol-4-yl)piperidin-1-yl)-5,8-dihydropyrido[3,4-d]pyrimidin-7(6H)-yl)-5-ethyl-6-fluoronaphthalen-2-ol], the IC50 is 1450 nM in the test on MKN1 cells (setting [1]); above 10000 nM with PSN1 cells (setting [2]); 2380 nM in the test with ASPC1 cells (Cisbio pERK HTRF); 1740 nM in the test with H727 cells (Cisbio pERK HTRF); 1540 nM in the test with A549 cells (Cisbio pERK HTRF); 1260 nM with H460 cells (Cisbio pERK HTRF). The half-inhibitory concentration (IC50) in the test with HCT116 cells (Cisbio pERK HTRF) is 4280 nM; in the test with H358 cells (Cisbio pERK HTRF), 757 nM; on KRas G12D, 16 nM; on KRas G12R, 8 nM; at KRas G12V it was 12 nM.

Consider `CCc1c(F)ccc2cc(O)cc(N3CCc4c(nc(OCC5(CN(C)C)CC5)nc4N4CCCC(n5ccc(C)n5)C4)C3)c12` (stereo not shown) [Example 600, 4-(2-((1-((dimethylamino)methyl)cyclopropyl)methoxy)-4-(3-(3-methyl-1H-pyrazol-1-yl)piperidin-1-yl)-5,8-dihydropyrido[3,4-d]pyrimidin-7(6H)-yl)-5-ethyl-6-fluoronaphthalen-2-ol], for which the IC50 is 1120 nM in the test with MKN1 cells (setting [1]); 605 nM in the test on PSN1 cells (setting [2]); 4980 nM in the test with ASPC1 cells (Cisbio pERK HTRF); 6290 nM in the test on H727 cells (Cisbio pERK HTRF); above 10000 nM in the test on A549 cells (Cisbio pERK HTRF); 1210 nM with H460 cells (Cisbio pERK HTRF). Moreover, the concentration for half-maximal inhibition (IC50) in the test on HCT116 cells (Cisbio pERK HTRF) was 3290 nM; with H358 cells (Cisbio pERK HTRF), 808 nM; at KRas G12D it was 33 nM; on KRas G12R it was 7 nM; at KRas G12V, 25 nM.

With `CCc1c(F)ccc2cc(O)cc(N3CCc4c(nc(OC[C@@]56CCCN5C[C@H](F)C6)nc4N4CCCn5nc(C(=O)N6CC7CNC(CO)C7C6)cc5C4)C3)c12` (stereo partly drawn) [Example 607, (5-(7-(8-ethyl-7-fluoro-3-hydroxynaphthalen-1-yl)-2-(((2R,7aS)-2-fluorotetrahydro-1H-pyrrolizin-7a(5H)-yl)methoxy)-5,6,7,8-tetrahydropyrido[3,4-d]pyrimidin-4-yl)-5,6,7,8-tetrahydro-4H-pyrazolo[1,5-a][1,4]diazepin-2-yl)(4-(hydroxymethyl)hexahydropyrrolo[3,4-c]pyrrol-2(1H)-yl)methanone], the IC50 is 953 nM with MKN1 cells (setting [1]); above 10000 nM with PSN1 cells (setting [2]); 161 nM in the test with ASPC1 cells (Cisbio pERK HTRF); 1220 nM with H727 cells (Cisbio pERK HTRF); 722 nM in the test on A549 cells (Cisbio pERK HTRF); 3410 nM with H460 cells (Cisbio pERK HTRF). Further, the IC50 was 3580 nM with HCT116 cells (Cisbio pERK HTRF); 229 nM in the test on H358 cells (Cisbio pERK HTRF); below 2 nM on KRas G12D; below 2 nM at KRas G12R; below 2 nM at KRas G12V.

In the case of `CCc1c(F)ccc2cc(O)cc(N3CCc4c(nc(OC[C@@]56CCCN5C[C@H](F)C6)nc4N4CCCn5nc(C(=O)N6CCNC7CC6C7)cc5C4)C3)c12` [Example 608, (2,5-diazabicyclo[4.1.1]octan-2-yl)(5-(7-(8-ethyl-7-fluoro-3-hydroxynaphthalen-1-yl)-2-(((2R,7aS)-2-fluorotetrahydro-1H-pyrrolizin-7a(5H)-yl)methoxy)-5,6,7,8-tetrahydropyrido[3,4-d]pyrimidin-4-yl)-5,6,7,8-tetrahydro-4H-pyrazolo[1,5-a][1,4]diazepin-2-yl)methanone], the half-maximal inhibitory concentration (IC50) in the test with MKN1 cells (setting [1]) was 49.7 nM; in the test on PSN1 cells (setting [2]) it was above 10000 nM; in the test with ASPC1 cells (Cisbio pERK HTRF) it was 46 nM; in the test on H727 cells (Cisbio pERK HTRF), 274 nM; in the test with A549 cells (Cisbio pERK HTRF) it was 215 nM; in the test with H460 cells (Cisbio pERK HTRF), 353 nM. Also, the IC50 in the test with HCT116 cells (Cisbio pERK HTRF) was 544 nM; in the test on H358 cells (Cisbio pERK HTRF), 42 nM; at KRas G12D, below 2 nM; on KRas G12R, below 2 nM; at KRas G12V it was below 2 nM.

For `CCc1c(F)ccc2cc(O)cc(N3CCc4c(nc(OC[C@@]56CCCN5C[C@H](F)C6)nc4N4CCCn5nc(C(=O)N6CC[C@H]7C[C@H]76)cc5C4)C3)c12` [Example 614, ((1R,5S)-2-azabicyclo[3.1.0]hexan-2-yl)(5-(7-(8-ethyl-7-fluoro-3-hydroxynaphthalen-1-yl)-2-(((2R,7aS)-2-fluorotetrahydro-1H-pyrrolizin-7a(5H)-yl)methoxy)-5,6,7,8-tetrahydropyrido[3,4-d]pyrimidin-4-yl)-5,6,7,8-tetrahydro-4H-pyrazolo[1,5-a][1,4]diazepin-2-yl)methanone], the half-inhibitory concentration (IC50) in the test with MKN1 cells (MKN-1, 3 hr compound incubation) worked out at 5.5 nM; in the test with PSN1 cells (3 hr compound incubation), 4070 nM; in the test with ASPC1 cells, 4 nM; in the test on H727 cells it was 10 nM; in the test with A549 cells it was 3 nM; with H460 cells it was 40 nM. Further, the concentration for half-maximal inhibition (IC50) with HCT116 cells is 123 nM; in the test with H358 cells it was 4 nM; on KRas G12D, below 2 nM; on KRas G12R, below 2 nM; at KRas G12V, below 2 nM.
